# Tested on: S. Epidermidis biofilm
# Assay: Eradication of biofilm from titanium alloy coupon by induction-heating thermal shock followed by antibiotics (FIG. 13)
# Format: cell-based
# Settings: vancomycine 10 mg/L and rifampicine 1 mg together, 24 hours exposure in BHI culture medium, after thermal shock of 65° C. from 3.5 minutes with induction heating, N=6 or greater
# From the text: N=6 or greater for each group.
row,Structure (SMILES),"eradication of biofilm (active count, Log (CFU/cm^2))"
1,CO[C@H]1/C=C/O[C@@]2(C)Oc3c(C)c(O)c4c(O)c(c(/C=N/N5CCN(C)CC5)c(O)c4c3C2=O)NC(=O)/C(C)=C\C=C\[C@H](C)[C@H](O)[C@@H](C)[C@@H](O)[C@@H](C)[C@H](OC(C)=O)[C@@H]1C [rifampicine],full eradication
2,CN[C@H](CC(C)C)C(=O)N[C@H]1C(=O)N[C@@H](CC(N)=O)C(=O)N[C@H]2C(=O)N[C@H]3C(=O)N[C@H](C(=O)N[C@H](C(=O)O)c4cc(O)cc(O)c4-c4cc3ccc4O)[C@H](O)c3ccc(c(Cl)c3)Oc3cc2cc(c3O[C@@H]2O[C@H](CO)[C@@H](O)[C@H](O)[C@H]2O[C@H]2C[C@](C)(N)[C@H](O)[C@H](C)O2)Oc2ccc(cc2Cl)[C@H]1O [vancomycine],full eradication

# — patent US20250177586A1, “HEATING APPARATUS AND METHODS” (ACADEMISCH ZIEKENHUIS LEIDEN (H.O.D.N. LUMC), priority 2018, published 2025)
